The results in this text go back to a melting point compilation (Tetko et al.; mined from patent text by program, amines drawn as free bases though some values may be those of a salt).

A value given as a limit tells only on which side of the number the result lay.

For `CN1CCN(C2CCN(c3ccc(Nc4ncc5cc6ccccc6n5n4)cc3)CC2)CC1`, the melting point lay within 226 to 229 °C.
With `Cc1ccc(S(=O)(=O)CS(C)(=O)=O)cc1` the figure was 164 to 165 °C; with `COC(=O)C1=C(C)NC(C)=C(C(=O)OCCN(O)CCC(c2ccccc2)c2ccccc2)C1c1cccc([N+](=O)[O-])c1` (stereo unspecified), 100 to 105 °C.
With `CN1CCN=C(c2ccc([N+](=O)[O-])cc2)C1=O` the figure was 191 to 192 °C; with `Nc1n[nH]c2nc(C3CC3)cc(-c3ccc(Cl)c(Cl)c3)c12`, 256 to 258 °C.
With `CC(C)Oc1ccc([N+](=O)[O-])cc1NC(=O)Nc1cccnc1` the figure was 231 to 232 °C; with `O=C(c1ccc2scnc(=O)c2c1)N1CCCC1`, 232 to 234 °C.
The compound `CCCC1C=C2NC(=O)CC[C@]2(C)[C@H]2CC[C@]3(C)[C@@H]([C@H](C)CCCC(C)C)CC[C@H]3[C@H]12` (stereo partly specified) showed a melting point of 91 to 94 °C.
The same measure for `Clc1ccccc1-c1cc(-c2ccccc2)c(-c2ccccc2)s1`: 103 to 107 °C; for `OC(c1ccc2noc(-c3cccc(Cl)c3)c2c1)c1nc(-c2ccccc2)cs1` (stereo unspecified): 136 °C; for `Cc1cc(-c2[nH]c3ccc(O)cc3c2C)cc(C)c1O`: 174 to 176 °C.
As to `COc1ccc2ncc(CO)c(OC(C)C)c2c1`, the melting point was 66 to 68 °C.
With `CCCCCCCCCC1COC(c2ccc(CCCCCCC)c(F)c2F)OC1` (stereo unspecified) the figure was 40.4 °C; with `CCOc1ncnc(OC)c1NC(N)=S`, 186 to 187 °C.
`CC(C)n1nc(-c2sc(NC(=O)c3ccc(I)cc3)nc2-c2ccccc2)ccc1=O` had a melting point of 253 to 254 °C.
The same measure for `C[C@@H]1CCC[C@H](C)N1CCNC(=O)CN1C(=O)CCC1(C)C`: 94 to 94.5 °C; for `COc1cc2c(Nc3ccc(Cl)cc3F)c(C#N)cnc2cc1OCc1ccccc1`: 241 to 243 °C; for `CCCC1=NN(c2ccncc2)C(=O)C1=CNc1ccccc1CC`: 159 °C.
With `CCCNC(=S)NS(=O)(=O)N1CCC(CCNC(=O)c2cc(Cl)ccc2OC)CC1`, the melting point lay within 119 to 121 °C.
With `CCCCC(Cc1ccc(OCCNC(=O)c2ccc(-c3ccccc3)cc2)cc1)C(=O)O` (stereo unspecified) the figure was 130 to 131 °C; with `COc1ccc(CNCC(O)COc2cccc3[nH]c4ccccc4c23)c(OC)c1` (stereo unspecified), 152 to 154 °C.
Compound `Cc1ccc(NS(=O)(=O)c2ccc(N3CCNC3=O)cc2)c(C)c1` returned a melting point of 238 to 239 °C.
On to `Cc1cc(N(C)C)cc(C)c1NC(NCCCCCCCc1ccc(C(C)(C)C)cc1)=C1C(=O)COC1=O`, for which the melting point lay within 144 to 147 °C.
With `COc1ccccc1-n1c(=O)[nH]c2c(C(N)=O)nc(Nc3ccc(O)cc3)nc21` the figure was 223 to 224 °C; with `OCCCC(O)c1ccccc1` (stereo unspecified), 63 to 68 °C.
Compound `CCCCCCCCCCOc1ccc(Br)cc1C12CC3CC(CC(C3)C1)C2` returned a melting point of 69 to 70 °C.
With `Nc1cc(OCc2ccccc2)c(C(=O)NC2CN3CCC2CC3)cc1Cl` (stereo unspecified) the figure was 170 to 171 °C; with `CCNC(=NS(=O)(=O)c1ccc(C#N)cc1)N1CC(CC)C=N1` (stereo unspecified), 146 to 149 °C.
The same measure for `O=C(/C=C/C=C/C(=O)NCCCOc1cccc(CN2CCCC2)c1)NCCCOc1cccc(CN2CCCC2)c1`: 178 to 180 °C; for `CC1(C)Oc2ccc(C#N)cc2[C@@H](N2CCN(c3ccccc3)C2=O)[C@@H]1O` (relative stereo): 205 to 206 °C.
With `Fc1ccc(-c2c(-c3ccccc3)oc3ncnc(Cl)c23)cc1` the figure was 124 to 127 °C; with `Cc1cc(C)cc(C(=O)N[C@H](Cc2ccccc2)C(=O)N[C@@H](Cc2c[nH]c3ccccc23)C(=O)O)c1`, 95 to 98 °C; with `N#CC1CCc2c(C(=O)O)cccc21` (stereo unspecified), 206 to 208 °C.
Regarding `Cc1ccc(-c2nc(COc3ccc(CCCCn4ccnc4)cc3)co2)s1`, the melting point fell in the range of 82 to 83 °C.
With `CCCCCCCCC1CC(c2ccc(-c3ccc(CCCCC)cc3)cc2)OC1=O` (stereo unspecified) the figure was 114 to 118 °C; with `COC(=O)CN1C(=O)c2ccccc2Nc2ccc(OCc3cccc4ccccc34)cc21`, 85 to 92 °C; with `CC(=O)Oc1ccc(C(=O)c2nc3ccc(OC(C)=O)cc3s2)cc1`, 183 °C.
With `CCOC(=O)CCCNc1cc(OC)c(OC)cc1C(C)=O` the figure was 74 to 76 °C.
Compound `COc1ccc(C(=O)CC(=O)C(C)(C)C)cc1C(=O)CC(=O)C(C)(C)C` registered a melting point of 69.4 to 70.8 °C.
With `CCc1cc(Cl)cc2c1NC(C)NS2(=O)=O` (stereo unspecified) the figure was 181 to 183 °C; with `O=C(O)Cc1ccc(OCc2ccccc2)cc1[N+](=O)[O-]`, 145 to 152 °C.
As for `O[C@@H]1CN(Cc2ccccc2)C[C@H]1Oc1ccccc1` (relative stereo), the melting point lay in the range of 88.5 to 90 °C.
Turning to `Cc1ccccc1CCNC(=O)c1ccc(F)cc1`, the melting point lay in the range of 82 to 83 °C.
With `CC(=O)O[C@H]1[C@H]([C@H](Cc2ccccc2)NC(=O)OCc2ccccc2)OC(=O)N[C@H]1Cc1ccccc1` the figure was 140 to 142 °C; with `CC(C)(CO)NS(=O)(=O)c1cnc(NC(=O)c2cnn3c(C(F)F)cc(-c4ccc(C(F)(F)F)cc4)nc23)s1`, 280 °C.
The same measure for `O=C(Cl)C=C(c1ccccc1)c1ccc([N+](=O)[O-])cc1`: 117 to 120 °C; for `CCc1c(OC)cc(C)c(C=CC(C)=CC=CC(C)=CC(=O)O)c1C`: 197 to 198 °C; for `Cc1ccc(S(=O)(=O)Nc2ccc3nc(N4CCN(C)CC4)c(N4CCN(C)CC4)nc3c2)cc1`: 234 to 237 °C.
The same measure for `CCCCC1=NC(C)(C)C(=O)N1Cc1ccc(-c2ccccc2C(=O)OC(C)(C)C)cc1`: 98 to 100 °C; for `CCCCCN1C(=O)C(CCC#N)(NC(=O)c2ccc(Cl)c(Cl)c2)c2ccccc21` (stereo unspecified): 79 to 84 °C.
On to `CC(=O)Nc1ccc2c(c1)Cc1c(-c3ccccc3)n[nH]c1-2`, for which the melting point was in the range of 275 to 276 °C.
The same measure for `NC1CNC(=O)C12CC2` (stereo unspecified): 97 to 99 °C.
With `CC(C)(C)c1cc(-c2nn(Cc3ccccc3)c3ncccc23)cc(C(C)(C)C)c1O` the figure was 155 to 157 °C; with `CNc1nc(C2C(=O)Nc3ccccc32)c2cn(C3CCCC3)nc2n1` (stereo unspecified), more than 300 °C.
The same measure for `CCCCCCCCCCCCCCCCCNC(=O)N(C)CC(O)C(O)C(O)C(O)CO` (stereo unspecified): 94 to 96 °C; for `CCOC(=O)C1(S(=O)(=O)c2ccc(OCc3ccccc3)cc2)CCN(Cc2ccccc2)CC1`: 89 °C.
Compound `O=C(N[C@@H]1CCc2ccccc21)c1nn(-c2ccc(F)cc2F)c2c1C1CCC2C1` (stereo partly specified) came in with a melting point of 158 to 161 °C.
The same measure for `O=[N+]([O-])c1c(Cl)sc(Cl)c1S(=O)(=O)Cl`: 89 to 91 °C; for `CCCCCCCCCCC(O)C[N+]1([O-])CCOCC1` (stereo unspecified): 151 to 152 °C; for `C[C@@H](Nc1ncnc2cc(OC3CCC3)c([N+](=O)[O-])cc12)c1ccccc1`: 108 to 110 °C.
The same measure for `CN(NC(=O)OC(C)(C)C)C(=O)C(C)(C)ON1C(=O)c2ccccc2C1=O`: 140 to 145 °C; for `COC(=O)C=CN1CCN(c2cccc(-n3cnc4cc(-c5ccoc5)ccc43)c2)CC1`: 168 to 171 °C; for `COC(=O)c1cc2cc(OC)c(OCCCl)cc2nc1N=CN(C)C`: 108 to 110 °C.
The same measure for `CC(C)Cn1c(CNC(=O)OC(C)(C)C)c(-c2ccccc2F)c2cc(C#N)ccc2c1=O`: 191 to 192 °C.
As for `O=c1[nH]c(CCl)c(I)c(=O)[nH]1`, the melting point worked out at 225 °C.
The same measure for `COC(=O)c1cccc(-n2cncn2)c1`: 115 to 120 °C; for `Cc1cc(-c2ccccc2)n2nc(N3CCN(Cc4ccccc4)CC3)c(C#N)c2n1`: 160 to 164 °C.
On to `Cc1ccc(C(=O)C(=O)c2ccncc2)cc1`, for which the melting point came to 65 °C.
With `CCOC(OCC)c1cc(NC(c2ccccc2)(c2ccccc2)c2ccccc2)c(F)c(C(C)(C)C)n1` the figure was 168 to 170 °C; with `CCOCc1nc2c(N)nc3ccc(OCc4cccnc4)cc3c2n1CC(C)C`, 204 to 206 °C; with `COc1cc(CCCCCCC=O)ccc1OCc1nc(-c2ccccc2)oc1C`, 64 to 65 °C.
With `O=C(NCCN1CCCC1)c1ccc(OCc2ccc(-c3ccccc3)cc2)cc1` the figure was 173 to 175 °C; with `CCOC(=O)C1=C(C)NC(C)=C(C(=O)OCC)C1c1ccccc1/C=C/C(=O)OCC(C)C`, 172 to 174 °C.
The same measure for `CCCc1nn2ncc(C(=O)OCOC(=O)C(C)(C)C)c2n1Cc1ccc(-c2ccccc2-c2nnn[nH]2)cc1`: 157 to 158 °C.
`Cc1cc(C)c2c(c1C)OC1(CCN(Cc3ccccc3)CC1)C2c1ccc(C(C)C)cc1` (stereo unspecified) registered a melting point of 125 to 128 °C.
`COc1ccc(Cc2ncc(CN3CCN(c4ccccc4OC)CC3)c3cc(OC)c(OC)cc23)cc1OC` displayed a melting point of 117 to 119 °C.
With `Brc1ccc(Nc2nnc(Cc3ccncc3)c3ccccc23)cc1` the figure was 201 to 202 °C; with `CCOc1ccc(NC(=O)c2c[nH]c3c2C(=O)C(C)(C)CC3)c(F)c1`, 218 to 219 °C.
With `CC(C)(S)CN1CCC(CCO)CC1` the figure was 42 °C; with `COc1ccc(C2CCN(C(=O)C(=O)NO)CC2)cc1C=C1CCCCCC1`, 135 to 136 °C.
With `O=CNCC1CC2C3CC4C2C4C13` (stereo unspecified) the figure was 225 to 226 °C; with `CN(C)C1=Nc2cc(Br)ccc2N2CCc3cccc1c32`, 124 to 127 °C; with `CNC(=O)[C@@H](O)[C@H](Sc1cc(C)ccc1N)c1ccc(C)cc1`, 168 to 170 °C.
For `COC(=O)C1=C(C)NC(C)=C(c2ccccc2)C1c1cccc(Cl)c1` (stereo unspecified), the melting point was 191 °C.
Compound `O=C(c1ccc(Cl)cc1Cl)N1CCc2cc(S(=O)(=O)N3CCN(c4cccc(Cl)c4)CC3)ccc21` came in with a melting point of 184 °C.
With `Cc1sc(-c2ccccc2)nc1COc1ccc(C#N)cn1` the figure was 124 to 125 °C.

In general, melting point refers to the temperature, or range, at which the solid turns liquid.
